# According to patent US6737383B1, “Herbicidal oxadiazolidines” (priority 1999, dated 2004):
# How the values were obtained:
# Conditions in all cases: Preemergence
# crabgrass = assay: Test B pre/postemergence crabgrass; type: in vivo, Digitaria sanguinalis
# In short: (§1)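 Herbicidal effect was estimated by eye on a ten-point control scale after plants spent twelve to sixteen days in a greenhouse following soil or foliar treatment. Foliar sprays targeted plants at one to four leaves; all doses were formulated in a non-phytotoxic solvent with surfactant.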
# sugar beet = assay: Test B pre/postemergence sugar beet; type: in vivo, Beta vulgaris
# In short: as §1
# pigweed = assay: Test B pre/postemergence pigweed; type: in vivo, Amaranthus retroflexus
# In short: as §1
# corn = assay: Test B pre/postemergence corn; type: in vivo, Zea mays
# In short: as §1
# purple nutsedge = assay: Test B pre/postemergence purple nutsedge; type: in vivo, Cyperus rotundus
# In short: as §1
# morningglory = assay: Test B pre/postemergence morningglory; type: in vivo, Ipomoea hederacea
# In short: as §1
# soybean = assay: Test B pre/postemergence soybean; type: in vivo, Glycine max
# In short: as §1
# velvetleaf = assay: Test B pre/postemergence velvetleaf; type: in vivo, Abutilon theophrasti
# In short: as §1
# bedstraw = assay: Test B pre/postemergence bedstraw; type: in vivo, Galium aparine
# In short: as §1
# giant foxtail = assay: Test B pre/postemergence giant foxtail; type: in vivo, Setaria faberii
# In short: as §1
# cocklebur = assay: Test B pre/postemergence cocklebur; type: in vivo, Xanthium strumarium
# In short: as §1
# rape = assay: Test B pre/postemergence rape; type: in vivo, Brassica napus
# In short: as §1
# surinam grass = assay: Test B pre/postemergence surinam grass; type: in vivo, Brachiaria decumbens
# In short: as §1
# wheat = assay: Test B pre/postemergence wheat; type: in vivo, Triticum aestivum
# In short: as §1
# blackgrass = assay: Test B pre/postemergence blackgrass; type: in vivo, Alopecurus myosuroides
# In short: as §1
# wild oat = assay: Test B pre/postemergence wild oat; type: in vivo, Avena fatua
# In short: as §1
# [1] = Rate 62 g/ha, scale of 0 to 10 where 0 is no effect and 10 is complete control
# [2] = Rate 125 g/ha, scale of 0 to 10 where 0 is no effect and 10 is complete control
# [3] = Rate 250 g/ha, scale 0 (no effect) to 10 (complete control)
# [4] = Rate 500 g/ha, scale 0 to 10 (0 no effect, 10 complete control)
# [5] = Rate 250 g/ha, scale 0 to 10 (0 no effect, 10 complete control)
# [6] = Rate 500 g/ha, scale of 0 to 10 where 0 is no effect and 10 is complete control
compound,measurement,setting,value
CC(C)N(C(=O)n1oc(=O)n(C(C)C2=NOCC2)c1=O)c1ccccc1 (racemic) [Compound 729],Crabgrass plant response rating,crabgrass; [1],7
same,"Plant response rating, Crabgrass",crabgrass; [2],9
same,Crabgrass plant response rating,crabgrass; [3],9
same,Crabgrass plant response rating,crabgrass; [4],10
same,Sugarbeets plant response rating,sugar beet; [1],0
same,"Plant response rating, Sugarbeets",sugar beet; [2],0
same,Sugarbeets plant response rating,sugar beet; [3],0
same,Sugarbeets plant response rating,sugar beet; [4],7
same,Redroot pigweed plant response rating,pigweed; [1],7
same,"Plant response rating, Redroot pigweed",pigweed; [2],9
same,Redroot pigweed plant response rating,pigweed; [3],10
same,Redroot pigweed plant response rating,pigweed; [4],10
same,Corn plant response rating,corn; [1],0
same,"Plant response rating, Corn",corn; [2],0
same,Corn plant response rating,corn; [3],6
same,Corn plant response rating,corn; [4],9
same,Nutsedge plant response rating,purple nutsedge; [1],0
same,"Plant response rating, Nutsedge",purple nutsedge; [2],0
same,Nutsedge plant response rating,purple nutsedge; [4],2
same,Morningglory plant response rating,morningglory; [1],0
same,"Plant response rating, Morningglory",morningglory; [2],0
same,Morningglory plant response rating,morningglory; [3],2
same,Morningglory plant response rating,morningglory; [4],8
same,Soybean plant response rating,soybean; [1],0
same,"Plant response rating, Soybean",soybean; [2],0
same,Soybean plant response rating,soybean; [3],2
same,Soybean plant response rating,soybean; [4],2
same,Velvetleaf plant response rating,velvetleaf; [1],0
same,"Plant response rating, Velvetleaf",velvetleaf; [2],2
same,Velvetleaf plant response rating,velvetleaf; [3],4
same,Velvetleaf plant response rating,velvetleaf; [4],8
same,Bedstraw plant response rating,bedstraw; [1],0
same,"Plant response rating, Bedstraw",bedstraw; [2],0
same,Bedstraw plant response rating,bedstraw; [3],8
same,Bedstraw plant response rating,bedstraw; [4],8
same,Giant foxtail plant response rating,giant foxtail; [1],9
same,"Plant response rating, Giant foxtail",giant foxtail; [2],9
same,Giant foxtail plant response rating,giant foxtail; [3],9
same,Giant foxtail plant response rating,giant foxtail; [4],10
same,Cocklebur plant response rating,cocklebur; [1],0
same,"Plant response rating, Cocklebur",cocklebur; [2],0
same,Cocklebur plant response rating,cocklebur; [3],0
same,Cocklebur plant response rating,cocklebur; [4],0
same,Rape plant response rating,rape; [1],0
same,"Plant response rating, Rape",rape; [2],2
same,Rape plant response rating,rape; [3],3
same,Rape plant response rating,rape; [4],10
same,B. signalgrass plant response rating,surinam grass; [1],5
same,"Plant response rating, B. signalgrass",surinam grass; [2],10
same,B. signalgrass plant response rating,surinam grass; [3],10
same,B. signalgrass plant response rating,surinam grass; [4],10
same,Wheat plant response rating,wheat; [1],0
same,"Plant response rating, Wheat",wheat; [2],0
same,Wheat plant response rating,wheat; [3],4
same,Wheat plant response rating,wheat; [4],6
same,Blackgrass plant response rating,blackgrass; [1],6
same,"Plant response rating, Blackgrass",blackgrass; [2],10
same,Blackgrass plant response rating,blackgrass; [3],10
same,Blackgrass plant response rating,blackgrass; [4],10
same,Wild oats plant response rating,wild oat; [1],2
same,"Plant response rating, Wild oats",wild oat; [2],7
same,Wild oats plant response rating,wild oat; [3],10
same,Wild oats plant response rating,wild oat; [4],10
CCn1ncc(Cn2c(=O)on(C(=O)N(c3ccc(F)cc3F)C(C)C)c2=O)c1Cl [Compound 682],Crabgrass plant response rating,crabgrass; [1],5
same,"Plant response rating, Crabgrass",crabgrass; [2],9
same,"Plant response rating, Crabgrass",crabgrass; [5],9
same,"Plant response rating, Crabgrass",crabgrass; [6],9
same,Sugarbeets plant response rating,sugar beet; [1],0
same,"Plant response rating, Sugarbeets",sugar beet; [2],0
same,"Plant response rating, Sugarbeets",sugar beet; [6],7
same,Redroot pigweed plant response rating,pigweed; [1],4
same,"Plant response rating, Redroot pigweed",pigweed; [2],4
same,"Plant response rating, Redroot pigweed",pigweed; [6],7
same,Corn plant response rating,corn; [1],0
same,"Plant response rating, Corn",corn; [2],0
same,"Plant response rating, Corn",corn; [5],0
same,"Plant response rating, Corn",corn; [6],0
same,Nutsedge plant response rating,purple nutsedge; [1],0
same,"Plant response rating, Nutsedge",purple nutsedge; [2],0
same,"Plant response rating, Nutsedge",purple nutsedge; [6],0
same,Morningglory plant response rating,morningglory; [1],0
same,"Plant response rating, Morningglory",morningglory; [2],0
same,"Plant response rating, Morningglory",morningglory; [6],3
same,Soybean plant response rating,soybean; [1],0
same,"Plant response rating, Soybean",soybean; [2],0
same,"Plant response rating, Soybean",soybean; [6],0
same,Velvetleaf plant response rating,velvetleaf; [1],0
same,"Plant response rating, Velvetleaf",velvetleaf; [2],0
same,"Plant response rating, Velvetleaf",velvetleaf; [6],0
same,Bedstraw plant response rating,bedstraw; [1],0
same,"Plant response rating, Bedstraw",bedstraw; [2],0
same,"Plant response rating, Bedstraw",bedstraw; [5],0
same,"Plant response rating, Bedstraw",bedstraw; [6],0
same,Giant foxtail plant response rating,giant foxtail; [1],9
same,"Plant response rating, Giant foxtail",giant foxtail; [2],10
same,"Plant response rating, Giant foxtail",giant foxtail; [6],10
same,Cocklebur plant response rating,cocklebur; [1],0
same,"Plant response rating, Cocklebur",cocklebur; [2],0
same,"Plant response rating, Cocklebur",cocklebur; [5],0
same,"Plant response rating, Cocklebur",cocklebur; [6],0
same,Rape plant response rating,rape; [1],0
same,"Plant response rating, Rape",rape; [2],0
same,"Plant response rating, Rape",rape; [6],7
same,B. signalgrass plant response rating,surinam grass; [1],2
same,"Plant response rating, B. signalgrass",surinam grass; [2],6
same,"Plant response rating, B. signalgrass",surinam grass; [5],7
same,"Plant response rating, B. signalgrass",surinam grass; [6],8
same,Wheat plant response rating,wheat; [1],0
same,"Plant response rating, Wheat",wheat; [2],0
same,"Plant response rating, Wheat",wheat; [6],0
same,Blackgrass plant response rating,blackgrass; [1],3
same,"Plant response rating, Blackgrass",blackgrass; [2],5
same,"Plant response rating, Blackgrass",blackgrass; [5],8
same,"Plant response rating, Blackgrass",blackgrass; [6],9
same,Wild oats plant response rating,wild oat; [1],0
same,"Plant response rating, Wild oats",wild oat; [2],0
same,"Plant response rating, Wild oats",wild oat; [6],8
